Measurements taken from PubChem BioAssay (NCI).
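1) Cells in 96-well plates. 2) Compound, 48 h, 5 concentrations. 3) Linear interpolation between surrounding doses. 4) Unreached endpoint = highest concentration. TGI marks complete inhibition of growth.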

Tests used:
Test in all cases: NCI tumour cell line growth inhibition, 48 h
MOLT-4 leukemia = test system: MOLT-4 leukemia
HCT-116 colon = test system: HCT-116 colon
RXF 393 renal = test system: RXF 393 renal
OVCAR-8 ovarian = test system: OVCAR-8 ovarian
MDA-MB-435 = test system: MDA-MB-435
T-47D breast = test system: T-47D breast
NCI-H226 lung = test system: NCI-H226 lung
OVCAR-5 ovarian = test system: OVCAR-5 ovarian
SW-620 colon = test system: SW-620 colon
SK-MEL-28 melanoma = test system: SK-MEL-28 melanoma
SF-295 CNS = test system: SF-295 CNS
SNB-19 CNS = test system: SNB-19 CNS
MCF7 breast = test system: MCF7 breast
TK-10 renal = test system: TK-10 renal
SK-MEL-5 melanoma = test system: SK-MEL-5 melanoma
K-562 leukemia = test system: K-562 leukemia
NCI-H23 lung = test system: NCI-H23 lung
PC-3 prostate = test system: PC-3 prostate
HT29 colon = test system: HT29 colon
786-0 renal = test system: 786-0 renal
MDA-MB-231 breast = test system: MDA-MB-231 breast
ACHN renal = test system: ACHN renal
SNB-75 CNS = test system: SNB-75 CNS
NCI-H460 lung = test system: NCI-H460 lung
HCC-2998 colon = test system: HCC-2998 colon
UACC-257 melanoma = test system: UACC-257 melanoma
NCI/ADR-RES ovarian = test system: NCI/ADR-RES ovarian
SK-MEL-2 melanoma = test system: SK-MEL-2 melanoma
RPMI-8226 leukemia = test system: RPMI-8226 leukemia
BT-549 breast = test system: BT-549 breast
HCT-15 colon = test system: HCT-15 colon
OVCAR-3 ovarian = test system: OVCAR-3 ovarian
UACC-62 melanoma = test system: UACC-62 melanoma
UO-31 renal = test system: UO-31 renal
MALME-3M melanoma = test system: MALME-3M melanoma
A498 renal = test system: A498 renal
U251 CNS = test system: U251 CNS
IGROV1 ovarian = test system: IGROV1 ovarian
MDA-N = test system: MDA-N
SN12C renal = test system: SN12C renal
CAKI-1 renal = test system: CAKI-1 renal
SF-268 CNS = test system: SF-268 CNS
NCI-H522 lung = test system: NCI-H522 lung
A549 NSCLC = test system: A549 NSCLC
SR leukemia = test system: SR leukemia
HOP-92 NSCLC = test system: HOP-92 NSCLC
HOP-62 NSCLC = test system: HOP-62 NSCLC
SF-539 CNS = test system: SF-539 CNS
DU-145 prostate = test system: DU-145 prostate
KM12 colon = test system: KM12 colon
CCRF-CEM leukemia = test system: CCRF-CEM leukemia
HL-60(TB) leukemia = test system: HL-60(TB) leukemia
EKVX NSCLC = test system: EKVX NSCLC
SK-OV-3 ovarian = test system: SK-OV-3 ovarian
M14 melanoma = test system: M14 melanoma
OVCAR-4 ovarian = test system: OVCAR-4 ovarian
COLO 205 colon = test system: COLO 205 colon
HS 578T breast = test system: HS 578T breast

Measured: TGI

O=C1c2ccccc2C(=O)N1n1c(Cc2ccc([N+](=O)[O-])cc2)n[nH]c1=O
89.1 µM: UACC-62 melanoma
not listed: CCRF-CEM leukemia | HL-60(TB) leukemia | EKVX NSCLC | SK-OV-3 ovarian | M14 melanoma | OVCAR-4 ovarian | COLO 205 colon | HS 578T breast
> 100 µM: all other assays above

COc1ccc(C(=O)/C=C/c2ccc(OCCCOc3ccc(/C=C/C(=O)c4ccc(OC)cc4)cc3)cc2)cc1
72.6 µM: SF-539 CNS
not listed: NCI-H23 lung | BT-549 breast | OVCAR-3 ovarian | MALME-3M melanoma | A498 renal | NCI-H522 lung | HOP-92 NSCLC
> 100 µM: all other assays above
